Assay results published in patent US20100196357A1, “Microrna modulators and method for identifying and using the same” (priority 2008, published 2010).

System: miR-21
Assay: high throughput screen for compounds that modulate miR-21
Assay type: cell-based
Conditions: Homo sapiens; Tables 4-12
Excerpt: This example describes a high throughput screening assay to identify small organic molecules that perturb the miRNA process. These active small molecules can be used as novel chemical tools to better understand miRNA functions and the molecular mechanisms of miRNA biogenesis. Moreover, miRNA inhibitors can be potentially developed into new therapeutics, including anticancer and antiviral agents. The high throughput assay is composed of a two-stage screening protocol, including of a primary screen to identify potential lead compounds from small molecule collections, and a secondary screen to evaluate and characterize the primary actives and to obtain a detailed structure-activity relationship (SAR).
Primary miR-21 Assay. The primary miR-21 FLuc reporter assay is carried out with HeLa cells expressing the Luc-miR-21 reporter using a 48-hour incubation time. Active compounds that increase the luciferase response are identified based upon inhibition of miR-21.
SAR. The concentration-response data for the entire high throughput screen is plotted and modeled by a four parameter logistic fit and SAR analysis is performed according to conventional approaches (Iglese, et al. (2006) Proc. Natl. Acad. Sci. USA 130:11473-8). In brief, Class 1.1 and 1.2 are full curves containing upper and lower asymptotes with efficacy ≧80% and <80%, respectively. […]

C/C(=N\NC(=O)c1cccs1)c1ccncc1
AC50: 7.36 µM

COc1ccc2c(c1)CC(C)C/C2=N\NC(=O)c1ccco1 (centres unmarked)
AC50: 16.5 µM
